Data on 21 compounds can be found in patent US10053431B2, “Tetrahydro-benzodiazepinones” (priority 2013, dated 2018).

For one test, the target named is BIR2 domain of XIAP (Homo sapiens (Human), UniProt P98170, C202A/C213G). The test can be described thus: TR-FRET assay for BIR2 (inhibition of binding of XIAP BIR2 domain to SMAC-derived Peptide A). The conditions noted are these: 6x His-tagged BIR2 domain (aa 124-240 of XIAP) 10 nM, Peptide A 20 nM, TR-FRET; read-out: IC50 BIR2. In general terms: Time-resolved FRET reads energy transfer from a long-lived donor to a nearby acceptor.
BIR2 domain of XIAP, sequence (P98170 124-240 with tags or gaps C202A/C213G limits assumed): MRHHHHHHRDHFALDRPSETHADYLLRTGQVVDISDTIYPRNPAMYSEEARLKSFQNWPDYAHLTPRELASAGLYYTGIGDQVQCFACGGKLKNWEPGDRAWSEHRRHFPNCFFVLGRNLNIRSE

In a further test the target is BIR3 domain of XIAP (Homo sapiens (Human), UniProt P98170). The experiment in a line: TR-FRET assay for BIR3 (inhibition of binding of XIAP BIR3 domain to SMAC-derived Peptide A).
BIR3 domain of XIAP, sequence (P98170 241-356 with tags or gaps limits assumed): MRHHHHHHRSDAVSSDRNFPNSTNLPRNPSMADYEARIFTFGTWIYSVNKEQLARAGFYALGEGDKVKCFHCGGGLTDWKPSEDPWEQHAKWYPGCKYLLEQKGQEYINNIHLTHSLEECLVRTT
[1] abbreviates: 6x His-tagged BIR3 domain (aa 241-356 of XIAP) 10 nM, Peptide A 20 nM, TR-FRET.

Structures can show the parent of a compound that is named as a salt. Where two headings read alike, the source gives them in different places.

By IC50 is commonly meant the point on the concentration scale where inhibition reaches its midpoint. As for `CN[C@@H](C)C(=O)N[C@H]1CN(C(=O)c2ccc(C#N)cc2)c2ccccc2N(Cc2c(OC(F)F)ccc3ccccc23)C1=O` [Example 74, (S)—N—((S)-5-(4-Cyanobenzoyl)-1-((2-(difluoromethoxy)naphthalen-1-yl)methyl)-2-oxo-2,3,4,5-tetrahydro-1H-benzo[b][1,4]diazepin-3-yl)-2-(methylamino)propanamide], the IC50 at BIR2 domain of XIAP is 49 nM; at BIR3 domain of XIAP (setting [1]), over 54800 nM.
In the case of `CN[C@@H](C)C(=O)N[C@H]1CN(C(=O)c2ccc(NC(C)=O)cc2)c2ccccc2N(Cc2c(OC)ccc3cc(Br)ccc23)C1=O` [Example 76d], the IC50 was 5 nM at BIR2 domain of XIAP and 33200 nM on BIR3 domain of XIAP (setting [1]).
With `CN[C@@H](C)C(=O)N[C@H]1CN(Cc2ccc(C#N)cc2)c2ccccc2N(Cc2c(OC)ccc3cc(Br)ccc23)C1=O` [Example 78, (S)—N—((S)-1-((6-Bromo-2-methoxynaphthalen-1-yl)methyl)-5-(4-cyanobenzyl)-2-oxo-2,3,4,5-tetrahydro-1H-benzo[b][1,4]diazepin-3-yl)-2-(methylamino)propanamide trifluoroacetate], the IC50 at BIR2 domain of XIAP worked out at 30 nM; on BIR3 domain of XIAP (setting [1]) it was 17100 nM.
With `CC[C@H](NC)C(=O)N[C@H]1CN(C(=O)c2ccc(C(C)=O)cc2)c2ccccc2N(Cc2c(OC)ccc3cc(Br)ccc23)C1=O` [Example 79, (S)—N—((S)-5-(4-Acetylbenzoyl)-1-((6-bromo-2-methoxynaphthalen-1-yl)methyl)-2-oxo-2,3,4,5-tetrahydro-1H-benzo[b][1,4]diazepin-3-yl)-2-(methylamino)butanamide hydrochloride], the IC50 amounted to 1 nM at BIR2 domain of XIAP and 3480 nM at BIR3 domain of XIAP (setting [1]).
`CCN[C@@H](C)C(=O)N[C@H]1CN(C(=O)c2ccc(C(C)=O)cc2)c2ccccc2N(Cc2c(OC)ccc3cc(Br)ccc23)C1=O` [Example 80, (S)—N—((S)-5-(4-Acetylbenzoyl)-1-((6-bromo-2-methoxynaphthalen-1-yl)methyl)-2-oxo-2,3,4,5-tetrahydro-1H-benzo[b][1,4]diazepin-3-yl)-2-(ethylamino)propanamide hydrochloride]: the IC50 on BIR2 domain of XIAP is 14 nM; on BIR3 domain of XIAP it was over 54800 nM.
On to `CN[C@@H](C)C(=O)N[C@H]1CN(C(=O)CS(C)(=O)=O)c2ccccc2N(Cc2c(OC)ccc3ccccc23)C1=O` [Example 82, (S)—N—((S)-1-((2-Methoxynaphthalen-1-yl)methyl)-5-(2-(methylsulfonyl)acetyl)-2-oxo-2,3,4,5-tetrahydro-1H-benzo[b][1,4]diazepin-3-yl)-2-(methylamino)propanamide hydrochloride], for which the IC50 on BIR2 domain of XIAP was 29 nM; at BIR3 domain of XIAP (setting [1]), over 54800 nM.
For `CN[C@@H](C)C(=O)N[C@H]1CN(C(=O)CS(C)(=O)=O)c2ccccc2N(Cc2c(OC(F)F)ccc3ccccc23)C1=O` [Example 83, (S)—N—((S)-1-((2-(Difluoromethoxy)naphthalen-1-yl)methyl)-5-(2-(methylsulfonyl)acetyl)-2-oxo-2,3,4,5-tetrahydro-1H-benzo[b][1,4]diazepin-3-yl)-2-(methylamino)propanamide hydrochloride], in that order: 121 nM and over 54800 nM.
On to `CN[C@@H](C)C(=O)N[C@H]1CN(C(=O)Cc2cccnc2)c2ccccc2N(Cc2c(OC)ccc3c(Br)cccc23)C1=O` [Example 88, (S)—N—((S)-1-((5-bromo-2-methoxynaphthalen-1-yl)methyl)-2-oxo-5-(2-(pyridin-3-yl)acetyl)-2,3,4,5-tetrahydro-1H-benzo[b][1,4]diazepin-3-yl)-2-(methylamino)propanamide hydrochloride], for which the IC50 on BIR2 domain of XIAP is 14 nM; at BIR3 domain of XIAP (setting [1]), 39900 nM.
Consider `CN[C@@H](C)C(=O)N[C@H]1CN(C(=O)c2cccc(C#N)c2)c2ccccc2N(Cc2c(OC)ccc3cc(Br)ccc23)C1=O` [Example 90c], for which the IC50 on BIR2 domain of XIAP turned out to be 6 nM; on BIR3 domain of XIAP (setting [1]), 21800 nM.
For the compound `CN[C@@H](C)C(=O)N[C@H]1CN(C(=O)c2ccc(C(F)(F)F)cc2)c2ccccc2N(Cc2c(OC)ccc3cc(Br)ccc23)C1=O` [Example 91d], the IC50 is 18 nM on BIR2 domain of XIAP and over 54800 nM on BIR3 domain of XIAP (setting [1]).
As for `CN[C@@H](C)C(=O)N[C@H]1CN(C(=O)c2ccc(C)cc2)c2ccccc2N(Cc2c(OC)ccc3c(Br)cccc23)C1=O` [Example 93, (S)—N—[(S)-1-(5-Bromo-2-methoxy-naphthalen-1-ylmethyl)-5-(4-methyl-benzoyl)-2-oxo-2,3,4,5-tetrahydro-1H-benzo[b][1,4]diazepin-3-yl]-2-methylamino-propionamide hydrochloride], the results for the IC50 at BIR2 domain of XIAP and at BIR3 domain of XIAP (setting [1]) were 18 nM and 47600 nM, respectively.
Regarding `CN[C@@H](C)C(=O)N[C@H]1CN(C(=O)c2ccc(C(C)(C)O)cc2)c2ccccc2N(Cc2c(OC)ccc3cc(Br)ccc23)C1=O` [Example 95, (S)—N—{(S)-1-(6-Bromo-2-methoxy-naphthalen-1-ylmethyl)-5-[4-(1-hydroxy-1-methyl-ethyl)-benzoyl]-2-oxo-2,3,4,5-tetrahydro-1H-benzo[b][1,4]diazepin-3-yl}-2-methylamino-propionamide trifluoroacetate], the values for the IC50 on BIR2 domain of XIAP and at BIR3 domain of XIAP (setting [1]) were 7 nM and 36300 nM, respectively.
In the case of `CN[C@@H](C)C(=O)N[C@H]1CN(C(=O)c2ccc(C(=O)OC)cc2)c2ccccc2N(Cc2c(C)ccc3ccccc23)C1=O` [Example 96a, 4-[(S)-3-((S)-2-Methylamino-propionylamino)-5-(2-methyl-naphthalen-1-ylmethyl)-4-oxo-2,3,4,5-tetrahydro-benzo[b][1,4]diazepine-1-carbonyl]-benzoic acid methyl ester hydrochloride], the IC50 was 99 nM at BIR2 domain of XIAP and over 54800 nM at BIR3 domain of XIAP (setting [1]).
Consider `CN[C@@H](C)C(=O)N[C@H]1CN(C(=O)Cc2nnn[nH]2)c2ccccc2N(Cc2c(C)ccc3ccccc23)C1=O` [Example 96b], for which the values for the IC50 on BIR2 domain of XIAP and on BIR3 domain of XIAP (setting [1]) were 71 nM and 38800 nM, respectively.
For `CN[C@@H](C)C(=O)N[C@H]1CN(C(=O)CC2CCOCC2)c2ccccc2N(Cc2c(C)ccc3ccccc23)C1=O` [Example 96c], in that order: 106 nM and 28100 nM.
Regarding `CN[C@@H](C)C(=O)N[C@H]1CN(C(=O)c2ccc(C#N)cc2)c2ccccc2N(Cc2c(C)ccc3ccccc23)C1=O` [Example 96d], the IC50 at BIR2 domain of XIAP was 46 nM; at BIR3 domain of XIAP (setting [1]) it was over 54800 nM.
On the same counts, the results for `CN[C@@H](C)C(=O)N[C@H]1CN(C(=O)CC2CCCCC2)c2ccccc2N(Cc2c(C)ccc3ccccc23)C1=O` [Example 96e] are 685 nM and over 54800 nM.
Take `CN[C@@H](C)C(=O)N[C@H]1CN(C(=O)Cc2cccnc2)c2ccccc2N(Cc2c(C)ccc3ccccc23)C1=O` [Example 96h]: the IC50 at BIR2 domain of XIAP came out at 23 nM; at BIR3 domain of XIAP (setting [1]) it was 13600 nM.
On to `CN[C@@H](C)C(=O)N[C@H]1CN(C(=O)c2ccc(F)cc2)c2ccccc2N(Cc2c(C)ccc3ccccc23)C1=O` [Example 96i], for which the IC50 turned out to be 30 nM at BIR2 domain of XIAP and 48000 nM at BIR3 domain of XIAP (setting [1]).
Turning to `CN[C@@H](C)C(=O)N[C@H]1CN(C(=O)c2ccc(C)cc2)c2ccccc2N(Cc2c(C)ccc3ccccc23)C1=O` [Example 96k], the 50% inhibitory concentration (IC50) at BIR2 domain of XIAP was determined as 38 nM; on BIR3 domain of XIAP (setting [1]), 32200 nM.
`CN[C@@H](C)C(=O)N[C@H]1CN(C(=O)c2ccc(OC)cc2)c2ccccc2N(Cc2c(C)ccc3ccccc23)C1=O` [Example 96l]: the IC50 at BIR2 domain of XIAP is 37 nM; at BIR3 domain of XIAP (setting [1]), over 54800 nM.
